Three molecules from US20220193047A1, “METHODS OF ENHANCING RADIOTHERAPY USING FERROPTOSIS INDUCERS AS RADIOSENSITIZERS” (THE TRUSTEES OF COLUMBIA UNIVERSITY IN THE CITY OF NEW YORK, priority 2019, published 2022) can be followed below.

The structures appear in SMILES notation. Entries after “also recorded” stand apart in the source; their conditions may differ.

Assay type in all cases: cell-based
Assay [1] relates to HT-1080 cells. The experiment in a line: Clonogenic assay with Cs-137 gamma radiation, HT-1080. Conditions: for Highest observed coefficient of Drug Interaction (CDI) in combination with IR: HT-1080; for Enhancement of radiation effect on clonogenic survival: HT-1080, cell death inducer plus radiation; for CDI with 4 Gy IR / CDI with 2 Gy IR: HT-1080 cells, CDI<1 synergy; for CDI with 2 Gy IR: inducer concentration (300 nM IKE, 20 nM RSL3, 1 nM staurosporine, 2 nM doxorubicin, 300 nM rapamycin, 100 ng/mL TNF + 20 μM Z-VAD-FMK + 300 nM birinapant). As to the method:
(§1) 500 cells were seeded per well in 6-well plates in their respective growth media and incubated overnight. The next day, cells were co-treated with DMSO or compounds and radiation using a Gammacell 40 Caesium-137 irradiator (Theratronics). Plates were monitored every day using a light microscope for formation of colonies in the DMSO-treated wells. When colonies of >50 cells are clearly visible, the growth medium was discarded from all plates. The cells were washed with PBS, then fixed and stained with crystal violet solution (0.05% crystal violet, 1% formaldehyde, 1% methanol in PBS). Colonies were then directly visualized and counted.
We tested their ability to prevent clonogenic growth, along with DMSO-treated controls.
The coefficient of drug interaction (CDI), used to compute interaction between two drugs, was used to quantify synergy between cell death inducers and radiation according to the formula CDI=AB/(A×B), where AB is the surviving fraction of the combination treatment, and A and B are the surviving fractions of the individual treatments.

Assay [2] relates to U87 cells. Kind of assay: Clonogenic assay with radiation, U87. As to the method: as §1
The coefficient of drug interaction (CDI), used to compute interaction between two drugs, was used to quantify synergy between cell death inducers and radiation according to the formula CDI=AB/(A×B), where AB is the surviving fraction of the combination treatment, and A and B are the surviving fractions of the individual treatments. […]
It was then tested whether cell death enhancement of radiation with ferroptosis inducers occurred across diverse tumor cell types. […] In addition to the initial ferroptosis-sensitive HT-1080 sarcoma cell line, glioma and lung cancer cells were evaluated, due to the clinical relevance of radiation therapy for the treatment of these tumor types. […]

For assay [3], the system named is lipid peroxidation in HT-1080 cells. Kind of assay: Lipid ROS assay by flow cytometry (C11-BODIPY). Conditions: HT-1080, 24 h, 6 Gy radiation with 1 μM IKE or 50 nM RSL3; ferrostatin-1 co-treatment. As to the method:
0.5 million cells were seeded in 10 cm dishes. The next day, they were co-treated with ferroptosis-modulating compounds and radiation and returned to the incubator. On the following day, cells were harvested in 15 ml tubes and washed twice with PBS followed by re-suspending in 500 μl of PBS containing 10 μM of BODIPY-C11 dye (Thermo Fisher Scientific, cat #D3861), and incubated at 37° C. for 30 minutes. The cells were then collected at 300× g for 5 minutes, washed with PBS three times, and subjected to the flow cytometry analysis. C6 flow cytometry system (BD Accuri cytometers) was used for the flow cytometer analysis. A minimum of 10,000 cells were analyzed per condition.
To confirm that radiation causes lipid peroxidation in these cells, lipid peroxidation was also measured with C-11 BODIPY (581/591), a membrane-targeted lipid sensor dye. […] The resulting enhancement was reversed in both cases by also co-treating the cells with ferrostatin-1.

Assay [4] deals with γH2AX foci in HT-1080 cells. The experiment in a line: γH2AX immunofluorescence staining. Conditions: for Number of γH2AX foci: HT-1080, 30 minutes, 0 or 6 Gy, 10 μM IKE, 1 μM RSL3, 10 μM ferrostatin-1; for γH2AX foci formation, compound alone: HT-1080, 6 h, no radiation; for γH2AX foci in irradiated groups vs DMSO: HT-1080, 6 h post-treatment, 6 Gy. The method, then: 10,000 cells were seeded on cover slips placed inside wells of 6-well plates. The next day, cells were treated with ferroptosis modulators and/or radiation, then returned to the incubator for 30 minutes or 6 hours. After the growth medium was removed, the cells were washed with PBS and fixed with 100 μl 4% paraformaldehyde per well for 10 minutes at room temperature. After three washes with PBS, cells were permeabilized with 100 μl Triton X-100 (0.1% v/v) per well for 10 minutes incubation at room temperature. Non-specific protein binding was blocked with 100 μl of BSA (1% v/v) per well for 20 minutes at room temperature. After removing excess BSA, 100 μl of primary mouse monoclonal anti-phospho histone-H2AX antibody (1:500) was added to each well for a 1-hour incubation at room temperature. Cells were washed with PBS and incubated with 100 μl of secondary antibody per well for 45 minutes at room temperature in the dark. Cells were washed with PBS and mounted on slides with one drop of Prolong anti-fade reagent with DAPI (Invitrogen) per coverslip. Slides were stored at 4° C. in the dark before analysis on a Zeiss LSM 700 confocal microscope with constant laser intensity for all analyzed samples.
Mechanisms of the cellular lethality from radiation are thought to be mainly derived from the downstream caspase-dependent apoptosis induced by DNA damage, including complex double-strand DNA breaks (Lomax et al., 2013; Morgan and Lawrence, 2015). Therefore, it was desired to determine if ferroptosis inducers and radiation induce DNA damage or affect DNA repair. The extent of these effects of radiation was evaluated by measuring DNA damage and caspase activation in HT-1080 cells co-treated with radiation and ferroptosis inducers. […] The cells were either treated with radiation (6 Gy) or not irradiated (0 Gy) as a control.

For assay [5], the system named is percent tail DNA in HT-1080 cells. Kind of assay: Comet assay. Conditions: for DNA single strand damage (percent tail DNA), compound alone: HT-1080, 10 μM IKE or 1 μM RSL3, 30 minutes or 4 hours; for DNA damage (percent tail DNA), combined with radiation: HT-1080, 6 Gy, 30 minutes or 4 hours. As to the method:
100,000 HT-1080 cells were seeded per well in 6-well plates and incubated overnight. On the next day, the cells were treated with ferroptosis modulators and/or radiation, then returned to the incubator for 30 minutes or 4 hours before being harvested with trypsin and counted. The comet assay was performed using the CometAssay kit (Trevigen) following the alkaline comet assay product instructions. All images were captured on a Zeiss LSM 700 confocal microscope with constant laser intensity for all analyzed samples. The fluorescent signal of each comet was analyzed using NIH ImageJ software.
To test for other forms of DNA damage that cannot be detected by the γH2AX assay, a comet assay, which detects single strand DNA damage in addition to double strand breaks, was performed in HT-1080 cells treated under the same conditions.

Assay [6] concerns PTGS2 mRNA. Kind of assay: RT-qPCR of PTGS2 mRNA. Conditions: HT-1080, 6 Gy radiation, 24 hours; 100 nM RSL3 or 10 μM ferrostatin-1. The method, then:
RNA was extracted using the Qiashredder and QIAGEN RNeasy Mini kits (QIAGEN) according to the manufacturer's protocol. 2 μg total RNA for each sample was used as input for each reverse transcription reaction. Quantitative PCR reactions were performed using the Power SYBR Green PCR Master Mix (Thermo Fisher Scientific). Triplicate samples per condition were analyzed on an Applied Biosystems 7300 qPCR instrument using absolute quantification settings. Differences in mRNA levels compared to ACTB internal reference control were computed between control and experimental conditions using the ΔΔCt method. The primers used in this study are listed below.

On to `CC(C)Oc1ccc(C(=O)Cn2ccnc2)cc1-n1c(CN2CCN(C(=O)COc3ccc(Cl)cc3)CC2)nc2ccccc2c1=O` [IKE, imidazole ketone erastin], for which, in assay [1], the “Highest observed coefficient of Drug Interaction (CDI) in combination with IR” value (“Highest observed coefficient” below) came to 0.17, the “Enhancement of radiation effect on clonogenic survival” value is on record as “significantly enhanced the effects of radiation”, the “CDI with 4 Gy IR” value is 0.17 and the “CDI with 2 Gy IR” value is given as 0.35. Besides, in assay [2], the “Highest observed coefficient” value was 0.65. In addition, the “C-11 BODIPY fluorescence” value in assay [3] is on record as “significantly increased C-11 BODIPY fluorescence”. In addition, in assay [4], the “Number of γH2AX foci” value was “did not affect the number of observed γH2AX foci”; the “γH2AX foci formation, compound alone” value is “did not result in γH2AX foci formation”; the “γH2AX foci in irradiated groups vs DMSO” value is recorded as “no differences were observed”. Also, in assay [5], the “DNA single strand damage (percent tail DNA), compound alone” value is reported as “not detect a significant increase” and the “DNA damage (percent tail DNA), combined with radiation” value (“DNA damage (percent tail DNA)” below) is recorded as “no significant enhancement of DNA damage”.
Take `COC(=O)c1ccc([C@@H]2c3[nH]c4ccccc4c3C[C@@H](C(=O)OC)N2C(=O)CCl)cc1` [RSL3, Ras Synthetic Lethal 3]: in assay [1], the “Highest observed coefficient” value amounted to 0.09, the “Enhancement of radiation effect on clonogenic survival” value is reported as “significantly enhanced the effects of radiation”, the “CDI with 4 Gy IR” value is listed as 0.09 and the “CDI with 2 Gy IR” value worked out at 0.27. Further, the “Highest observed coefficient” value in assay [2] is given as 0.31. Also, in assay [3], the “C-11 BODIPY fluorescence” value was “significantly increased C-11 BODIPY fluorescence”. Besides, in assay [4], the “Number of γH2AX foci” value was “did not affect the number of observed γH2AX foci”; the “γH2AX foci formation, compound alone” value is recorded as “did not result in γH2AX foci formation”; the “γH2AX foci in irradiated groups vs DMSO” value is listed as “no differences were observed”. For the same molecule, in assay [5], the “DNA single strand damage (percent tail DNA), compound alone” value is listed as “not detect a significant increase” and the “DNA damage (percent tail DNA)” value was “no significant enhancement of DNA damage”. Also, in assay [6], the “PTGS2 mRNA” value is reported as “even further enhanced”.
Take `CCOC(=O)c1ccc(NC2CCCCC2)c(N)c1` [ferrostatin-1]: the “Colony formation after radiation alone” value in assay [1] (HT-1080, 2 or 4 Gy radiation, no ferroptosis inducer) is recorded as “significantly rescued colony formation; also recorded: partially rescued cell death induced by radiation alone”. For the same molecule, the “Synergy between IKE or RSL3 and radiation in colony formation” value in assay [1] (HT-1080, co-treatment with ferroptosis inhibitor) is “suppress the synergy”. Further, the “Synergy between sorafenib and radiation in colony formation” value in assay [1] (HT-1080, co-treatment with ferrostatin-1) was “partially suppressible”. The “C-11 BODIPY fluorescence” value in assay [3] is recorded as “reversed”. For the same molecule, in assay [4], the “Number of γH2AX foci” value is listed as “did not affect the number of observed γH2AX foci” and the “γH2AX foci in irradiated groups vs DMSO” value is recorded as “no differences were observed”. Further, the “DNA damage (percent tail DNA)” value in assay [5] is given as “did not observe a significant protective effect”. Also, the “PTGS2 mRNA” value in assay [6] is on record as “reversed this induction of PTGS2”.
